Measured values reported in patent US20200291079A1, “ENGINEERING STRUCTURALLY DEFINED NON-SACCHARIDE GLYCOSAMINOGLYCAN MIMETICS VIA A POLYPROLINE SCAFFOLD” (AGENCY FOR SCIENCE, TECHNOLOGY AND RESEARCH, priority 2015, published 2020).
Entries after “also recorded” stand apart in the source; their conditions may differ. Each block holds one molecule with its values, some of them ahead of it. Square brackets hold non-standard residues; d marks the D form. Primed or numbered codes have the meaning given here. Ends that are not written are not given here. * marks the point of attachment. PE = 4-azidoproline (Pz) joined by click reaction (1,2,3-triazole) to NS; Biotin = O=C1N[C@H]2[C@H](CS[C@H]2CCCCC(=O)*)N1; PEG12′ = not defined here

Experiments:
Factor Xa = assay: BIOPHEN Heparin Anti-Xa assay in the presence of anti-thrombin; format: biochemical; conditions: at concentrations as high as 300 ug/ml, anti-thrombin present
Text: (§1) One common drawback hampering the clinical application of negatively charged glycomimetics is the potentially hazardous tendency to activate anti-thrombin, which in turn severely impairs the ability of blood coagulation factors (e.g. Factor Xa and IIa) in the final common pathway to orchestrate blood coagulation. To verify the safety and clinical potential of the engineered non-saccharide glycomimetics of tunable spatial conformation, the effect of (PE)12-NS and heparin on the activity of blood coagulation factors, Factor Xa and IIa in the presence of anti-thrombin, was assessed. This assessment was performed using BIOPHEN Heparin Anti-Xa and Anti-IIa assays (Aniara) where the inhibitory effect of anti-thrombin on Factor Xa and IIa was determined by the ability of the factors to catalyze the hydrolysis of factor-specific chromogenic substrates. […] The use of spatial conformation to present key chemical motifs toward selectins is therefore specific and independent of other proteins that could lead to undesirable consequences if concomitant enhanced binding were to be seen.

[1] = test system: B16F10 murine melanoma cells bound to P-selectin-coated surfaces; assay: Adhesion of calcein-labeled tumor cells to immobilized P-selectin; format: cell-based; conditions: B16F10 cells on P-selectin-coated surfaces
Text: As such, it was examined if the strong binding affinity of (PE)12-NS toward P-selectin could translate into inhibition of P-selectin-mediated adhesion of tumor cells. To do so, recombinant P-selectin chimera protein with a Fc region was immobilized on Protein A-coated surfaces. The adhesion of calcein-labeled B16F10 murine melanoma cells to these surfaces in the presence of heparin or (PE)12-NS was then visualized (FIG. 16A) and quantified by fluorescence microplate reader (FIG. 16B).

PC12 cells = assay: Neurite outgrowth assay (GDNF-mediated neuritogenesis); conditions: 72 h; for effect on neuritogenesis: added to culture media, 20 μM, untreated cells
Experimental: PC12 cells were maintained in T75 tissue culture flasks in RPMI 1640 medium (ATCC® 30-2001) supplemented with 10% heat-inactivated horse serum (HI-HS, Gibco 26050-088), 5% fetal bovine serum (FBS, Gibco 26170-043) and 1% penicillin/streptomycin (Gibco 15140-122). Stock cultures from liquid nitrogen were grown at 37° C. with 5% CO2 in a humidified chamber for a minimum of 72 hr before experiments. Cells were seeded on 13 mm round glass coverslips (Paul Marienfeld 0111530). The coverslips were pretreated with 65% nitric acid for three days, washed with distilled water, 70% ethanol and 100% ethanol thrice each for 30 minutes with gentle rocking and then dried in a cell culture hood overnight under UV. For cell attachment, the treated coverslips were coated with laminin (25 μg/mL in PBS; Sigma L2020) at 37° C. for 1 hr, washed thrice with PBS, and then placed at the bottom of a 24-well plate for cell seeding. For all experiments, cells were cultured in RPMI 1640 differentiation media containing 1% HI-HS.
PC12 cells were first harvested and incubated in differentiation media or differentiation media supplemented with 30 μM of DPPE-(PE)12-NS for 2 h. After incubation, the cells were centrifuged and rinsed twice with fresh differentiation medium and then seeded onto laminin-coated coverslips at a density of 100 cells/mm^2. After allowing the cells to attach for 1 hr at 37° C., the medium was replaced with fresh differentiation medium supplemented with 200 ng/mL GDNF and 1 μg/mL GFRα1. As additional controls, (PE)12-NS or NS were further added to the supplemented medium to a final concentration of 20 μM for untreated cells. After 72 h, the cells were fixed with 4% paraformaldehyde solution (Tokyo Chemical Industry 30525-89-4 in PBS) for 15 minutes at room temperature and then rinsed with PBS. Bright-field images were taken using an Olympus IX71 Inverted Microscope at 20× magnification under phase contrast. For each condition, 400-500 randomly selected single cells were counted. The percentage of neurite-bearing cells was determined by counting the number of cells with neurites longer than the cell body. Experiments were repeated three times and done in duplicate each time.

GDNF [2] = biological target: GDNF (Homo sapiens, UniProt P39905)
GDNF (Homo sapiens, UniProt P39905), sequence (P39905 76-211, species assumed): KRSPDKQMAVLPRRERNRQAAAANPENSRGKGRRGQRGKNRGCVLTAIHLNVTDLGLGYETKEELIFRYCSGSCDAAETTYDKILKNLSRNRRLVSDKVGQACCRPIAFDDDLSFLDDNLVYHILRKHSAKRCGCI
Experimental: (§2) SPR measurements were performed using a Biacore T100 system (GE Healthcare). The CM5 sensor chip was primed with HBS-EP+ buffer (10 mM HEPES pH 7.4, 150 mM NaCl, 3.4 mM EDTA, 0.005% P20, GE Healthcare) and was activated using the standard amine-coupling protocol (1:1 mixture of 0.4 M EDC and 0.1M NHS). 0.008 mg/ml of streptavidin solution in 10 mM sodium acetate buffer (Acetate 5.0, GE Healthcare) was conjugated and remaining activated groups were quenched with 1 M ethanolamine solution (pH 8.5). The final amount of streptavidin covalently immobilized on the surface was typically 700 RU. Flow cell 1 (or 3) was used as a reference to subtract nonspecific binding, drift, and the bulk refractive index, while flow cell 2 (or 4) was further immobilized with GAG mimetic agents or natural polysaccharides. […] Immobilized amount is normalized by a molecular weight. For a given affinity measurement, varying amount of protein solutions were successively injected into the flow cells for 240 seconds of contact time and 800 seconds of dissociation time using a flow rate of 50 μL/min at 25° C. Flow cell was regenerated using 2.5 M MgCl2 at 30 μL/min. Association (ka) and dissociation (kd) rate constants were calculated with a 1:1 binding model using Biacore evaluation software, and KD values were calculated from the ratio of kd to ka. Kinetic parameters were obtained by fitting curves to a 1:1 Langmuir model with baseline correction.
(§3) With the non-saccharide glycosaminoglycan mimetics in hand, SPR was employed to facilitate quantitative, real-time kinetic analysis of non-saccharide glycosaminoglycan mimetic binding to GDNF and GFRα1.

GFRα1 [3] = biological target: GFRα1 (Homo sapiens, UniProt P56159)
GFRα1 (Homo sapiens, UniProt P56159), sequence (P56159 25-429, species assumed): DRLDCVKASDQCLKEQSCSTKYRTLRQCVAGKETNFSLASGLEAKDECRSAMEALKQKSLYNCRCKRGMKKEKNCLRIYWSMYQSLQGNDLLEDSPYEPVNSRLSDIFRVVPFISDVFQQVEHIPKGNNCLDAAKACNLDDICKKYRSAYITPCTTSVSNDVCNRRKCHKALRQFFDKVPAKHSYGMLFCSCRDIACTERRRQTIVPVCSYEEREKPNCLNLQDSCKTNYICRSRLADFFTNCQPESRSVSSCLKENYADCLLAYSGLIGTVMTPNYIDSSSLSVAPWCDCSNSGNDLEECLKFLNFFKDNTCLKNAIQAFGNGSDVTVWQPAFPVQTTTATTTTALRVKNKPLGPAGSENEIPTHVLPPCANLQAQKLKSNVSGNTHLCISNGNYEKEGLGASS
Experimental: as §2, §3

Factor IIa = assay: BIOPHEN Heparin Anti-IIa assay in the presence of anti-thrombin; format: biochemical; conditions: at concentrations as high as 300 ug/ml, anti-thrombin present
Text: as §1

P-selectin [4] = biological target: T1, P-selectin (Homo sapiens, UniProt P16109); assay: SPR binding to P-selectin; conditions: distributed vs single facial conformation
T1 sequence (P16109 42-830): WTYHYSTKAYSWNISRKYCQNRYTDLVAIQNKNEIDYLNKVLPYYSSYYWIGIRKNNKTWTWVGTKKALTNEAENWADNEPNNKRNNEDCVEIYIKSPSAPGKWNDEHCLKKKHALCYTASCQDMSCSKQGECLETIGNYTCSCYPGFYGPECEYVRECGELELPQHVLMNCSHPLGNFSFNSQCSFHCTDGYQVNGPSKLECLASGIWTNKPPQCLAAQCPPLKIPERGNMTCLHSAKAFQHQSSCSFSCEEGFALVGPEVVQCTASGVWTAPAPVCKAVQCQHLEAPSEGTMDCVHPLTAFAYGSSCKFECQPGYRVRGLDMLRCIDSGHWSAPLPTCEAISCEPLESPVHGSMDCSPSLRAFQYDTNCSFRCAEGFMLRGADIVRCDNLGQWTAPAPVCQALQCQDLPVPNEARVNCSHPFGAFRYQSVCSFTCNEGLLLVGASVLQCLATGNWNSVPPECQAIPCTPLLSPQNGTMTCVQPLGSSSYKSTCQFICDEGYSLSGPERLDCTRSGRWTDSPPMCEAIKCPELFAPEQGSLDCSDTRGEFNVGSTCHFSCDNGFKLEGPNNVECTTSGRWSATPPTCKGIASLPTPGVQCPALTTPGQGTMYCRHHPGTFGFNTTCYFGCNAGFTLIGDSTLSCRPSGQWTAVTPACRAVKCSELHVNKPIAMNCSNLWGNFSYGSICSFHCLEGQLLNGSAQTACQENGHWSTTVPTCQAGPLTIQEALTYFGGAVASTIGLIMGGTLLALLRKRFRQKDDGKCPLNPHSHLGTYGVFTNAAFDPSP
Experimental: as §2, with “Kinetic parameters were obtained by fitting curves to a 1:1 Langmuir model with baseline correction.” left out

GDNF [5] = biological target: T2, GDNF; assay: SPR (Biacore T100), biotinylated mimetic on streptavidin CM5 chip, protein injected, 1:1 model
T2 chain: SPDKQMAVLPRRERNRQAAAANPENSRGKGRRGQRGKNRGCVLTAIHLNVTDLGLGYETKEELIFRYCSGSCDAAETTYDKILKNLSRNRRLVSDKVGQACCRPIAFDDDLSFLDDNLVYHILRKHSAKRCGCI

[6] = biological target: recombinant P-selectin chimera protein with a Fc region; assay: cell-based or functional assay
P-selectin [7] = biological target: T3, P-selectin; assay: SPR (Biacore T100), biotinylated mimetic on streptavidin chip, selectin injected
T3 chain: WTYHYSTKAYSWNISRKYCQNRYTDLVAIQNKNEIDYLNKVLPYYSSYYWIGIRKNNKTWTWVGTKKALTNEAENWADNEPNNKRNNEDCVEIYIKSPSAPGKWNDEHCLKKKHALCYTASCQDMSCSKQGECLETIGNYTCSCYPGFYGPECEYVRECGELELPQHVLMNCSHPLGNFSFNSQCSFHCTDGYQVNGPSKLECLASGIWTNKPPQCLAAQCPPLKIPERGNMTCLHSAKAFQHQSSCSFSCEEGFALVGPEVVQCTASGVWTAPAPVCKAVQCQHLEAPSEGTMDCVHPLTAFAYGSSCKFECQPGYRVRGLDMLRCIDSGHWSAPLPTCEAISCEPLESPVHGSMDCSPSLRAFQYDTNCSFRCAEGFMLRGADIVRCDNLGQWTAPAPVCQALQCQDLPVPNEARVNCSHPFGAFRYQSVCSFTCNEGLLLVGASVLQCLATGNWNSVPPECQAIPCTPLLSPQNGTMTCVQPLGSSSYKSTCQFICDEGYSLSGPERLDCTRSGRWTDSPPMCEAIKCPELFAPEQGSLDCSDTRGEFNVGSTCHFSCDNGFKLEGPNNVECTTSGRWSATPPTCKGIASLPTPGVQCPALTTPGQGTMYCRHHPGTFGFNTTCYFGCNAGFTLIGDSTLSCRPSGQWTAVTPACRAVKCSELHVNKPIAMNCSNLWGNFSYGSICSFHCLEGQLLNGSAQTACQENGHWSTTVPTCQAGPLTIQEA

GFRα1 [8] = assay: SPR (Biacore T100), biotinylated mimetic on streptavidin CM5 chip, protein injected, 1:1 model
[9] = GDNF, SPR, 1:1 binding model, 25° C.
[10] = SPR sensorgrams, 0.2-1.0 nM protein
[11] = GFRα1, SPR, 1:1 binding model, 25° C.

Molecule: COC(=O)[C@@H]1C[C@@H](n2cc(CC(COS(=O)(=O)O)OS(=O)(=O)O)nn2)CN1C(=O)[C@@H]1C[C@@H](n2cc(CC(COS(=O)(=O)O)OS(=O)(=O)O)nn2)CN1C(=O)[C@@H]1C[C@@H](n2cc(CC(COS(=O)(=O)O)OS(=O)(=O)O)nn2)CN1C(=O)[C@@H]1C[C@@H](n2cc(CC(COS(=O)(=O)O)OS(=O)(=O)O)nn2)CN1C(=O)[C@@H]1C[C@@H](n2cc(CC(COS(=O)(=O)O)OS(=O)(=O)O)nn2)CN1C(=O)[C@@H]1C[C@@H](n2cc(CC(COS(=O)(=O)O)OS(=O)(=O)O)nn2)CN1C(=O)[C@@H]1C[C@@H](n2cc(CC(COS(=O)(=O)O)OS(=O)(=O)O)nn2)CN1C(=O)[C@@H]1C[C@@H](n2cc(CC(COS(=O)(=O)O)OS(=O)(=O)O)nn2)CN1C(=O)[C@@H]1C[C@@H](n2cc(CC(COS(=O)(=O)O)OS(=O)(=O)O)nn2)CN1C(=O)[C@@H]1C[C@@H](n2cc(CC(COS(=O)(=O)O)OS(=O)(=O)O)nn2)CN1C(=O)[C@@H]1C[C@@H](n2cc(CC(COS(=O)(=O)O)OS(=O)(=O)O)nn2)CN1C(=O)[C@@H]1C[C@@H](n2cc(CC(COS(=O)(=O)O)OS(=O)(=O)O)nn2)CN1C(=O)CCOCCOCCOCCOCCOCCOCCOCCOCCOCCOCCOCCOCCNC(=O)CCCC[C@@H]1SC[C@@H]2NC(=O)N[C@@H]21 (stereo partly drawn) [(PE)12-NS]
- activity of Factor Xa (Factor Xa): remained unaffected
- concentration from which near-complete inhibition of adhesion is achieved [1]: ≥ 0.6 µg/mL
- effect on neuritogenesis (PC12 cells; GDNF and GFRα1): Complete inhibition
- effect on neuritogenesis (PC12 cells; GDNF and GFRα1, listed as biotin-(PE)12-NS): completely inhibited neuritogenesis
- kd (GDNF [2]; [9]): 2.12 (± 0.07) × 10^−3 S^−1
- kα (GDNF [2]; [9]): 6.42 (± 0.28) × 10^5 M^−1S^−1
- binding affinity to GDNF (comparison in words) (GDNF [2]; [10]): far higher binding affinity
- kd (GFRα1 [3]; [11]): 4.9 (± 1.7) × 10^−2 S^−1
- kα (GFRα1 [3]; [11]): 4.26 (± 0.90) × 10^5 M^−1S^−1
- binding affinity to GFRα1 (comparison in words) (GFRα1 [3]; [10]): far higher binding affinity
- activity of Factor IIa (Factor IIa): remained unaffected
- binding affinity to P-selectin (comparison in words) (P-selectin [4]): stronger binding affinity

Molecule: DPPE-(PE)12-NS (PPPPPPPPPPPP)
- percentage of neurite-bearing cells (PC12 cells; cells pre-incubated with 30 μM for 2 h, 200 ng/mL GDNF and 1 μg/mL GFRα1, control 16%): 45%
- neurite length (PC12 cells; cells pre-incubated with 30 μM for 2 h, GDNF and GFRα1): marked increase

Molecule: pent-4-yne-1,2-diyl bis(sulfate) [NS]
- effect on neuritogenesis (PC12 cells; GDNF and GFRα1): No significant effect; also recorded: no discernable effect

- Kd (GDNF [5]): 3.3 nM
- koff (GDNF [5]): 0.00212 s⁻¹
- kon (GDNF [5]): 642000 M⁻¹ s⁻¹
- IC50 of inhibition of adhesion of calcein-labeled B16F10 murine melanoma cells to immobilized P-selectin [6]: 0.18 µg/mL
- near-complete inhibition of adhesion of B16F10 cells to immobilized P-selectin [6]: > 0.6 µg/mL
- Kd (P-selectin [7]): 6 nM
- Kd (GFRα1 [8]): 116 nM
- koff (GFRα1 [8]): 0.049 s⁻¹
- kon (GFRα1 [8]): 426000 M⁻¹ s⁻¹
B1: Biotin-(PE)12-NS (peptide)
peptide: {Biotin-PEG12′}-[PE][PE][PE][PE][PE][PE][PE][PE][PE][PE][PE][PE]
modifications: also: CO2CH3 methyl ester seen in NMR
notes: Non-saccharide glycosaminoglycan mimetic on a polyproline type II helix, with NS on all three faces; The biotinylated form was immobilised on streptavidin for SPR; also called distributed design; distributed conformation
